Each structure is given as a SMILES string.

Among the data in a melting point compilation (Tetko et al.; mined from patent text by program, amines drawn as free bases though some values may be those of a salt) are melting point values, retold here.

As usually defined, the melting point is the temperature, or range, at which the solid turns liquid. `CN(C)C(=O)CCC(=O)NC1CCC(CCN2CCC(c3cccc4c3CCO4)CC2)CC1` (stereo not given) came in with a melting point of 205 °C. `CC(C)(C)OC(=O)N1CCC2(CC1)NC(=O)N(CC(O)CO)C2=O` (stereo not given) came in with a melting point of 167 to 170 °C. `OC1CSC(Oc2cccnc2F)C(O)C1O` (stereo not given) came in with a melting point of 85 to 87 °C.

`c1cc2c(Nc3ccc4[nH]ccc4c3)ncnc2cn1` yielded a melting point of 265 °C. Molecule `CC(C)(C)c1cc2c(c(C(C)(C)C)c1)OC(=O)C2c1ccccc1` (stereo not given) had a melting point of 116 to 119 °C. `COC(=O)c1ccc2c(C(=O)c3ccccc3)c(C(=O)OC)ccc2c1` gave a melting point of 84 °C.

Turning to `CCOCc1nc2c(N)nc3cc(OCc4ccc(F)cc4)ccc3c2n1CC(C)(C)NS(C)(=O)=O`, the melting point is 251 to 253 °C. As for `CCC(CC)CNC(=O)c1ccc2cccc(Cc3ccc(C(=O)NS(=O)(=O)c4ccccc4C)cc3OC)c2c1`, the melting point lay within 126 to 128 °C. For `N#CN=C(Nc1cccc(-c2cccc(S(=O)(=O)NC(CC(=O)O)c3ccccc3)c2)c1)NC1CC1` (stereo not given), the melting point came to 120 °C. On to `CCN1C(=O)CCCc2ccc(Nc3ncc(Cl)c(Nc4c(F)cccc4C(=O)NC)n3)cc21`, for which the melting point fell in the range of 228 to 235 °C.

The molecule `CC1CN(c2cc3c(cc2F)C(=O)c2nc4ccccc4c(=O)n2-3)CCN1C(=O)OC(C)(C)C` (stereo not given) had a melting point of 234 to 237 °C. `CCC(CC)Nc1c([N+](=O)[O-])cc(C)c(COC(=O)CCl)c1[N+](=O)[O-]` gave a melting point of 45 to 48 °C.

`CCOC(=O)C1=C(C)Nc2nc(N3CCOCC3)nc(N3CCOCC3)c2C1c1cccnc1` (stereo not given) registered a melting point of 229 °C. The molecule `Cc1c(OCC(F)(F)F)ccnc1CS(=O)c1nc2cc(N3CCN(C)CC3)c(F)cc2[nH]1` (stereo not given) displayed a melting point of 73 to 74 °C.

For `O=C(O)CN(CC(=O)O)C(=O)c1cc(OCCCCCCOc2ccc(-c3ccccc3)cc2)ccc1OCc1ccccc1`, the melting point was in the range of 98 to 100 °C. As to `Cc1cccc(-c2n[nH]cc2-c2ccc(F)c(-c3ccc4c(c3)CCS4(=O)=O)c2)n1`, the melting point was in the range of 107 to 109 °C.

The molecule `CN1CCN(C(=O)Oc2ccc(C[C@H](NC(=O)Nc3ccccc3S(=O)(=O)c3ccccc3)C(=O)O)cc2)CC1` yielded a melting point of 160 °C. Molecule `COc1ccc(OC)c(C2OC(=O)c3c(OC)ccc(C)c32)c1` (stereo not given) displayed a melting point of 121 to 123 °C. In the case of `COC1=C(OC)C(OC)C(C=CC(=O)O)(OC)C=C1C` (stereo not given) it was 117 to 118 °C; in that of `CC(O[Si](C)(C)C(C)(C)C)C1C(=O)NC1C1CCCC(OCCCl)C1O` (stereo not given), 97 to 100 °C; in that of `O=C(NCN1CCCCCCCC1=O)NCN1CCCC1=O`, 149 to 150 °C. `CSc1ccc(S(=O)(=O)N2CCCC2=O)cc1` registered a melting point of 123 to 125 °C. In turn, `COc1ccc2c(c1)CCC1=C2CCC(=O)C1` gave a melting point of 75 to 77 °C. Molecule `CNC(=O)c1ccc2cc(C(=O)O)ccc2c1` displayed a melting point above 276 °C. `CCC(=O)c1cc[nH]c(=O)c1` returned a melting point of 168 °C. In the case of `CCOC(=O)[C@H](Cc1ccc(O)cc1)NC(=O)c1c(F)cccc1F` it was 149 to 150 °C. The result for `Cc1ccc(-c2nc3ccc(Cl)nc3n2CC(=O)N(C)C)cc1` reads 182 to 185 °C; that for `CC1Cc2ccccc2N1N` (stereo not given), 37 to 38 °C. As for `Cc1cc(OC(F)F)ccc1C(=O)O`, the melting point fell in the range of 117 to 119 °C. In turn, `Cc1cc(C2=C(c3cccc(F)c3)C(=O)C(C)(C)O2)ccc1S(C)(=O)=O` came in with a melting point of 138 to 139 °C. In turn, `CCc1cc2c(Cl)cc(F)c(-n3c(=O)cc(C(F)(F)F)n(N)c3=O)c2o1` displayed a melting point of 145 to 147 °C. Turning to `COc1cccc(F)c1CCl`, the melting point lay in the range of 87 to 89 °C. In the case of `O=S(CCCCCOc1ccc(C2=C(c3ccccc3)CCCc3cc(O)ccc32)cc1)Cc1ccccn1` (stereo not given) it was 176 °C. `CN1CCc2c(c3cc(Cl)ccc3n2CCC#N)C1`: the melting point fell in the range of 127 to 129 °C.

`Oc1cc2ccccn2n1`: the melting point was in the range of 127 to 128 °C. In turn, `CC(=O)NC1(C#N)CC(C)(C)NC(C)(C)C1` had a melting point of 153 to 160 °C. As for `NC(=O)Cc1cc(Oc2ccc3c(ccn3C(=O)Nc3ccc(CN4CCN(C5CC5)CC4)c(C(F)(F)F)c3)c2)ncn1`, the melting point was in the range of 122 to 126 °C. For `CCCOc1ccc(C(=O)Nc2ccc3cc(CN4CCCC4)cnc3c2C)c(F)c1`, the melting point came out at 146 °C. In turn, `CCOC(=O)c1ccc(-c2csc(-c3ccc(Cl)cc3)n2)s1` showed a melting point of 234 to 236 °C. Molecule `Cc1cccc2nc3sc(Cl)cn3c(=O)c12` came in with a melting point of 162 to 166 °C. `COc1ccc(Nc2ncc3cc(-c4c(Cl)cccc4Cl)c(=O)n(C)c3n2)cn1`: the melting point is 233 to 235 °C. Molecule `Nc1nc2c(Cl)ncnc2n1C1OC(CO)C(O)C1O` (stereo not given) showed a melting point of 214 to 217 °C. Turning to `Cc1nc(-c2ccc(C(=O)Nc3ccc(Cl)cc3)cc2)sc1C(=O)O`, the melting point is 276 to 278 °C. For the molecule `CC(C)(CS(=O)(=O)c1ccc(Cl)cc1)C(=O)C(Oc1ccc(Cl)cc1)n1cncn1` (stereo not given), the melting point is 55 to 60 °C. Molecule `Cc1ccc(Cn2[nH]c(N)cc2=O)cc1Cl` came in with a melting point of 130 to 131 °C. The molecule `Cn1ccc(OC2c3cc(C#N)ccc3OC(C)(C)C2O)cc1=O` (stereo not given) gave a melting point of 202 to 203 °C. The result for `CCCCC12CCC3C4=C(CCC3C1CCC2O)CC(OC)=CC4` (stereo not given) reads 135 to 139 °C; that for `COCN(c1noc(C)c1C)S(=O)(=O)C1(Br)C=CC=CC1` (stereo not given), 71 to 72 °C; that for `Cc1cc(-c2cc(C(F)(F)F)nc(-c3cccc(-c4cccc(S(N)(=O)=O)c4)c3)n2)ccc1C(F)(F)F`, 205 °C.

`CCCCOC(=O)c1cc2c3ccccc3[nH]c(=O)n2n1` registered a melting point of 190 to 195 °C. `COc1ccccc1-c1ccc(S(N)(=O)=O)c(N)c1`: the melting point fell in the range of 219 to 221 °C. Regarding `CCOC(=O)C1=C(C)N(C(=O)c2ccccc2)C(C)=C(C(=O)OCC)C1c1cccc([N+](=O)[O-])c1`, the melting point fell in the range of 98 to 101 °C. On to `O=C(O)C(=O)N1CCc2cc(S(=O)(=O)N3CCN(c4cccc(Cl)c4)CC3)ccc21`, for which the melting point lay within 219 to 220 °C. As for `C=CCOc1ccc(S(=O)(=O)N2CCN(C)CC2)cc1-c1nc2c(CCC)nn(C)c2c(=O)[nH]1`, the melting point fell in the range of 151 to 153 °C. Take `CCOC(=O)Cc1ccc2c(c1)sc1cc(Cl)ccc12`: the melting point was in the range of 68 to 70 °C. As to `O=C1c2ccccc2C(=O)N1CCSCc1ccc(C2OCCO2)o1`, the melting point lay within 83 to 85 °C. Take `CCCCCCCCCCCC1=NCCN1CCOCCO`: the melting point is 58 to 60 °C. As to `CC1(C)CNC(=O)N1CC#CCN1CCCC1`, the melting point worked out at 50 °C. In the case of `C(=C\c1cc(/C=C/c2ccc3[nH]ccc3c2)n[nH]1)/c1cccc(OCc2ccccn2)c1` it was 183 to 186 °C. For the molecule `Cc1cccc(-c2nc3cccnn3c2-c2ccnc(NC(=O)C3CC3)c2)c1`, the melting point lay within 203 to 204 °C.

As to `C=C(C)C(=O)Oc1ccc(S(=O)(=O)ON=C2CCCc3ccccc32)cc1`, the melting point lay within 108 to 109 °C.

As to `CCOC(=O)c1cc(C=O)ccc1O`, the melting point lay in the range of 67 to 69 °C. As for `O=C1c2ccccc2C(=O)N1CCN(OCc1ccccc1)C(=S)Nc1c(F)cccc1F`, the melting point was in the range of 141 to 143 °C. As to `CCN1c2ncc(C=Cc3cccc(F)c3)cc2C(=O)N(C)c2ccc(Cl)nc21`, the melting point was 130 to 131 °C. The molecule `O=C(NC(=O)c1c(F)cccc1F)Nc1cc(C(F)(F)F)c(F)cc1Cl` returned a melting point of 192 °C. `CCOC(=O)C1CCc2cc(Cc3cnc(N)s3)ccc2C1` (stereo not given) showed a melting point of 147 to 149 °C. In the case of `CCOC(=O)C1(C(=O)OCC)CCC2(CC1)c1ccc(O)cc1CCN2C(=O)OCc1ccccc1`, the melting point is 123 to 124 °C. Take `COC(=O)NN(C(=O)Cl)c1cccc2c1OCC2`: the melting point lay within 110 to 112 °C.

With `CC(=O)Oc1cc2ccccc2cc1C(N)=O`, the melting point lay within 201 to 202 °C.

In the case of `CCN1CC2OC(C3OCCO3)(C1)c1ccccc12` (stereo not given), the melting point lay within 107 to 108 °C.

In turn, `Cc1ccc(Sc2cncc3sc(C(N)=O)cc23)cc1C` registered a melting point of 192 to 194 °C. As for `Cc1c(-c2ccc(Cl)s2)ccc(N)c1C#N`, the melting point is 108 to 110 °C.

In the case of `C=CCONC(=O)c1nc(Cl)cc(N)c1Cl`, the melting point fell in the range of 161 to 163 °C.

`COC(=O)c1cc2c(OC[C@@H](O)CN3CCC(c4ccc5ccccc5c4)CC3)cccc2o1`: the melting point lay within 118 to 119 °C. The molecule `CNc1nn2nnnc2c2c1CCCC2` yielded a melting point of 318 °C. As for `CN(C)C(=O)C(N)=NNc1ccc(Cl)cc1C(=O)c1ccccc1Cl`, the melting point is 150 to 151 °C. In the case of `CC1CCC2(C)C(CCC3C4CCC(=O)C4(C)CCC32)C1` (stereo not given) it was 107 to 108 °C. As to `Brc1nc(Br)n(COCc2ccccc2)c1Sc1ccccc1`, the melting point was 89 to 90 °C.

For `Cc1noc(-c2sc(N3CCN(Cc4ccc(C(F)(F)F)cc4)C3=O)nc2C)n1`, the melting point lay within 163 to 164 °C.

As to `O=S(c1cc(Cl)c(-n2cccn2)c(Cl)c1)C(F)(F)F` (stereo not given), the melting point was in the range of 86 to 91 °C. Consider `O=C1Nc2cccnc2N(C(=O)NCCN2CCCC(CN3CCCCCC3)C2)c2ccccc21` (stereo not given), for which the melting point was in the range of 135 to 137 °C. In turn, `O=C(NCCSCc1ccccc1Cl)c1c(Cl)cccc1Cl` returned a melting point of 110 to 112 °C.

`CCCCOC(=O)CS(=O)C(C)c1ccc(-c2ccccc2F)cc1` (stereo not given) gave a melting point of 72 to 74 °C. `N#Cc1ccc(C(=O)N2CC2C#N)cc1` (stereo not given) came in with a melting point of 107 to 110 °C.

`CCn1nc(O)nc1SC` came in with a melting point of 83 to 87 °C. The molecule `CNC(=O)Oc1cc(C)c(NC(=O)COC)cc1C` came in with a melting point of 168 to 170 °C.

As to `Nc1ncnc2c1c(-c1ccc(Oc3ccccc3)cc1)cn2C1CCC(O)CC1` (stereo not given), the melting point is 199 to 200 °C. In the case of `CS(=O)(=O)N(CC1CCCCC1)CC(O)(Cn1cncn1)c1ccc(Cl)cc1Cl` (stereo not given) it was 168 to 169 °C; in that of `O=C(NCC(C(=O)Nc1n[nH]c(=S)s1)c1ccccc1)OCc1ccccc1` (stereo not given), 201 to 202 °C. `O=C(O)C(=O)Nc1nccs1` came in with a melting point of 174 to 177 °C.
